Measurements: patent US20250152584A1, “NLRP3 INFLAMMASOME INHIBITOR AND USES THEREOF” (TransThera Sciences (Nanjing), Inc., priority 2022, published 2025)

Legend:
[1] = Pharmacokinetic study in C57BL/6J mice; type: in vivo; conditions: mouse, plasma, C57BL/6J female mice; for Tmax: median, read-out: Tmax po (peak time of plasma concentration); for Cmax: read-out: Cmax po (peak concentration); for clearance: read-out: Cl—obs iv (clearance rate) (converted); for Vd: read-out: Vss iv (volume of distribution); for bioavailability: iv 5 mg/kg / po 10 mg/kg, read-out: F % (absolute bioavailability)
Description: Experimental Example 2: Pharmacokinetic Study of Compounds in C57BL/6J Mice
Compound 100, Compound 54, Compound 174, Compound 179, and Compound 253 were prepared into solutions with a mixed solvent formulated from 5% dimethyl sulfoxide, 20% (30% solutol) and 75% normal saline, respectively; the solution of each compound was administered to C57BL/6J female mice by gavage at a dose of 10 mg/kg; and the time points for blood collection were: 15 min, 30 min, 1 h, 2 h, 4 h, 6 h, 8 h and 24 h. The solution of the compound was administered to C57BL/6J female mice by intravenous bolus at a dose of 5 mg/kg, and the time points for blood collection were as follows: 5 min, 15 min, 30 min, 1 h, 2 h, 4 h, 6 h, 8 h, and 24 h.
Compound 1 was prepared into a solution with a mixed solvent formulated from 5% DME, 20% (30% solutol) and 75% normal saline; the solution of this compound was administered to C57BL/6J female mice by gavage at a dose of 10 mg/kg, and the time points for blood collection were: 15 min, 30 min, 1 h, 2 h, 4 h, 6 h, 8 h, and 24 h. The solution of the compound was administered to C57BL/6J female mice by intravenous bolus at a dose of 5 mg/kg, and the time points for blood collection were as follows: 5 min, 15 min, 30 min, 1 h, 2 h, 4 h, 6 h, 8 h, and 24 h.
Compound 195 was prepared into a solution with a mixed solvent formulated from 5% dimethyl sulfoxide, 20% PEG400 and 75% normal saline; the solution of this compound was administered to C57BL/6J female mice by gavage at a dose of 10 mg/kg; and the time points for blood collection were 15 min, 30 min, 1 h, 2 h, 4 h, 6 h, 8 h, and 24 b. The solution of the compound was administered to C57BL/6J female mice by intravenous bolus at a dose of 5 mg/kg, and the time points for blood collection were as follows: 5 min, 15 min, 30 min, 1 h, 2 b, 4 h, 6 h, 8 h, and 24 h.
(§1) Approximately 100 μL of blood was collected through the retroorbital venous plexus, and was then placed in an anticoagulant tube containing EDTA-K2. Blood samples were centrifuged at 12,000 rpm for 10 min at 4° C. to obtain plasma samples, and plasma was prepared within 30 min after blood collection. The plasma was stored in a −80° C. freezer before testing.
• 1. The samples were taken from the −80° C. freezer, thawed naturally at room temperature, and then vortexed for 5 min • 2. 10 μL of a plasma sample was precisely pipetted from different individuals into a 1.5 mL centrifuge tube. • 3. 300 μL of an internal standard working solution (the acetonitrile solution of tolbutamide) at a concentration of […] was added and mixed well. • 4. After vortexing for 5 min, the mixture was centrifuged at 12,000 rpm for 5 min. • 5. 50 μL of the supernatant was accurately pipetted into a 96-well plate preloaded with water at 150 μL/well. • 6. Vortexing was performed for 5 min for sufficient mixing, and LC-MS/MS analysis was then conducted.
(§2) The results of the concentrations of the compounds under test were output using Analyst 1.6.3 of AB. Parameters such as mean, standard deviation, coefficient of variation was calculated by Microsoft Excel (parameters directly output by Analyst 1.6.3 needed no calculation), and PK parameters were calculated by WinNonlin Phenoix 8.2 software NCA (Tmax as the median).

[2] = Pharmacokinetic study in SD male rats; type: in vivo; conditions: rat, plasma; for clearance: read-out: Cl—obs iv (clearance rate) (converted); for Vd: read-out: Vss iv (volume of distribution); for bioavailability: iv 1.0 mg/kg / po 5.0 mg/kg, read-out: F % (absolute bioavailability); for Tmax: median, read-out: Tmax po (peak time of plasma concentration); for Cmax: read-out: Cmax po (peak concentration)
Description: Experimental Example 3: Pharmacokinetic Study of Compounds in SD Male Rats
Compound 54, Compound 55, Compound 174, Compound 173, and Compound 264 were prepared into solutions with a mixed solvent formulated from 5% dimethyl sulfoxide, 20% (30% solutol) and 75% normal saline, respectively; the solution of each compound was administered to SD male rats by gavage at a dose of 5.0 mg/kg; and the time points for blood collection were: 15 min, 30 min, 1 h, 2 h, 4 h, 6 h, 8 h, 10 h and 24 h. The solution of the compound was administered to male SD rats by intravenous bolus at a dose of 1.0 mg/kg, and the time points for blood collection were as follows: 5 min, 15 min, 30 min, 1 h, 2 h, 4 h, 6 h, 8 h, 10 h, and 24 h.
as §1, with “On the day before administration, the jugular vein of each animal was cannulated; and after administration, about 300” for “Approximately 100”, “jugular vein,” for “retroorbital venous plexus,”, “and” for “and was”
• 1. The samples were taken from the −80° C. freezer, thawed naturally at room temperature, and then vortexed for 5 min. • 2. 30 μL of a plasma sample was precisely pipetted into a 1.5 mL centrifuge tube. • 3. 750 μL of an internal standard working solution (the acetonitrile solution of tolbutamide) at a concentration of […] was added and mixed well. • 4. After vortexing for 5 min, the mixture was centrifuged at 12,000 rpm for 5 min. • 5. 50 μL of the supernatant was accurately pipetted into a 96-well plate preloaded with water at 150 μL/well. • 6. Vortexing was performed for 5 min for sufficient mixing, and LC-MS/MS analysis was then conducted.
as §2

[3] = po, gavage 10 mg/kg, read-out: AUClast po (area under the drug-time curve for 0-24 h)
[4] = po, gavage 10 mg/kg, read-out: tz1/2 po (terminal elimination half-life) (converted)
[5] = intravenous bolus 5 mg/kg, read-out: AUClast iv (area under the drug-time curve for 0-24 h)
[6] = intravenous bolus 5 mg/kg, read-out: tz1/2 iv (terminal elimination half-life) (converted)
[7] = intravenous bolus 1.0 mg/kg, read-out: AUClast iv (area under the drug-time curve for 0-24 h)
[8] = intravenous bolus 1.0 mg/kg, read-out: tz1/2 iv (terminal elimination half-life) (converted)
[9] = po, gavage 5.0 mg/kg, read-out: AUClast po (area under the drug-time curve for 0-24 h)
[10] = po, gavage 5.0 mg/kg, read-out: tz1/2 po (terminal elimination half-life) (converted)

Structure (SMILES)	Tmax ([1]; po, gavage 10 mg/kg) [h]	AUC(0-t) [1, 3] [ng·h/mL]	Cmax ([1]; po, gavage 10 mg/kg) [ng/mL]	half-life [1, 4] [h]	AUC(0-t) [1, 5] [ng·h/mL]	clearance ([1]; intravenous bolus 5 mg/kg) [mL/min/kg]	Vd ([1]; intravenous bolus 5 mg/kg) [L/kg]	half-life [1, 6] [h]	bioavailability [1] [%]	AUC(0-t) [2, 7] [ng·h/mL]	clearance ([2]; intravenous bolus 1.0 mg/kg) [mL/min/kg]	Vd ([2]; intravenous bolus 1.0 mg/kg) [L/kg]	half-life [2, 8] [h]	bioavailability [2] [%]	Tmax ([2]; po, gavage 5.0 mg/kg) [h]	AUC(0-t) [2, 9] [ng·h/mL]	Cmax ([2]; po, gavage 5.0 mg/kg) [ng/mL]	half-life [2, 10] [h]
C#Cc1ccc(-c2nnc(N[C@@H]3CCCN(C)C3)c3c2CCCC3)c(O)c1 [Compound 1, (R)-5-ethynyl-2-(4-((1-methylpiperidin-3-yl)amino)-5,6,7,8-tetrahydrophthalazin-1-yl)phenol]	0.25	1890	428	3	1820	44	5.22	3.85	49.9									
C#Cc1ccc(-c2nnc(N[C@H]3C[C@@](C)(O)C3)cc2C)c(O)c1 [Compound 55, 5-ethynyl-2-(6-(((cis)-3-hydroxyl-3-methylcyclobutyl)amino)-4-methylpyridazin-3-yl)phenol]										5130	3.17	1.12	5.24	163	2	38500	3050	7.18
C#Cc1ccc(-c2nnc(N[C@@H]3CCCN(C)C3)c3ccccc23)c(O)c1 [Compound 100, (R)-5-ethynyl-2-(4-((1-methylpiperidin-3-yl)amino)phthalazin-1-yl)phenol]	2	10100	1530	2.76	6360	13.1	3.16	3.04	79.4									
C#Cc1ccc(-c2nnc(N[C@@H]3CCCN(C)C3)cc2C2CC2)c(O)c1 [Compound 173, (R)-2-(4-cyclopropyl-6-((1-methylpiperidin-3-yl)amino)pyridazin-3-yl)-5-ethynylphenol]										1100	14.3	6.92	6.13	85.6	4	4690	395	5.72
C#Cc1ccc(-c2nnc(N[C@@H]3CCCN(C)C3)nc2C2CC2)c(O)c1 [Compound 179, (R)-2-(5-cyclopropyl-3-((1-methylpiperidin-3-yl)amino)-1,2,4-triazin-6-yl)-5-ethynylphenol]	0.5	3860	1120	2.19	2470	32.8	5.14	2.01	79.2									
C#Cc1ccc(-c2nnc(N[C@@H]3CCCN(CCO)C3)cc2C)c(O)c1 [Compound 253, (R)-5-ethynyl-2-(6-((1-(2-hydroxyethyl)piperidin-3-yl)amino)-4-methylpyridazin-3-yl)phenol]	0.5	6900	2320	3.49	3200	25.5	2.76	1.5	106									
CC#Cc1ccc(-c2nnc(N[C@@H]3CCCN(C)C3)cc2C2CC2)c(O)c1 [Compound 264, (R)-2-(4-cyclopropyl-6-((1-methylpiperidin-3-yl)amino)pyridazin-3-yl)-5-(propyl-1-alkyn-1-yl)phenol]										811	17.5	12.5	8.89	72.8	4	3120	230	7.26
